Data taken from paper PMC12169614, “Exploring Long Arm Amide-Linked Side Chains in the Design of Antifungal Azole Inhibitors of Sterol 14α-Demethylase (CYP51)” (Journal of Medicinal Chemistry, 2025).

Legend:
Y2411 Endog. ScCYP51 = test: MIC80 determination, strain Y2411; type: cell-based, S. cerevisiae; details: Saccharomyces cerevisiae; strain Y2411 Endog. ScCYP51; SD pH 6.8, 30 °C, 48 h
Procedure: (§1) Cells were seeded at an OD600 nm of 0.005 (1.5 × 10^4 CFU), and the plates were incubated at 30 °C with shaking at 200 rpm for 48 h for S. cerevisiae strains and 24 h for C. albicans . Cell growth was assessed by measuring the OD600 nm using a Synergy 2 multimode plate reader (BioTek Instruments, VT, USA). Each MIC80 was determined using triplicate measurements for pools of 4 clones of each strain in three separate experiments.

Y2300 OE ScCYP51 = test: MIC80 determination, strain Y2300; type: cell-based, S. cerevisiae; details: Saccharomyces cerevisiae, 48 h, pH 6.8
Procedure: as §1

Y2301 OE ScCYP51 Y140F = test: MIC80 determination, strain Y2301; type: cell-based, S. cerevisiae; details: Saccharomyces cerevisiae, 48 h, pH 6.8
Procedure: as §1

Y2513 OE ScCYP51 Y140H = test: MIC80 determination, strain Y2513; type: cell-based, S. cerevisiae; details: Saccharomyces cerevisiae, 48 h, pH 6.8
Procedure: as §1

Y2459 OE CaCYP51 CaCpr = test: MIC80 determination, strain Y2459; type: cell-based, S. cerevisiae; details: Saccharomyces cerevisiae, 48 h, pH 6.8
Procedure: as §1

Y525 OE CaMDR1a = test: MIC80 determination, strain Y525; type: cell-based, S. cerevisiae; details: Saccharomyces cerevisiae, 48 h, pH 6.8
Procedure: as §1

Y570 OE CaCDR1B = test: MIC80 determination, strain Y570; type: cell-based, S. cerevisiae; details: Saccharomyces cerevisiae, 48 h, pH 6.8
Procedure: as §1

Y71 SC5314 = test: MIC80 determination, C. albicans clinical isolate Y71 SC5314; type: cell-based; details: Candida albicans; C. albicans clinical isolate Y71 SC5314; pH 7, 24 h
Procedure: as §1

Y1 = test: MIC80 determination, C. albicans clinical isolate Y1; type: cell-based; details: Candida albicans, pH 7, 24 h
Procedure: as §1

Y610 FHB1 = test: MIC80 determination, C. albicans clinical isolate Y610 FHB1; type: cell-based; details: Candida albicans; C. albicans clinical isolate Y610 FHB1 (weakly expresses CaCDR1); pH 7, 24 h
Procedure: as §1

Y611 FHB3 = test: MIC80 determination, C. albicans clinical isolate Y611 FHB3; type: cell-based; details: Candida albicans, 24 h, pH 7
Procedure: as §1

Y2721 OE CpCYP51 = test: MIC80 determination, strain Y2721; type: cell-based, S. cerevisiae; details: Saccharomyces cerevisiae
Procedure: as §1

Y2716 OE CpCYP51 Y132F = test: MIC80 determination, strain Y2716; type: cell-based, S. cerevisiae; details: Saccharomyces cerevisiae
Procedure: as §1

Y2374 OE CgCYP51 = test: MIC80 determination, strain Y2374; type: cell-based, S. cerevisiae; details: Saccharomyces cerevisiae
Procedure: as §1

Y433 OE CgCDR1 = test: MIC80 determination, strain Y433; type: cell-based, S. cerevisiae; details: Saccharomyces cerevisiae
Procedure: as §1

Y2767 OE CauCYP51 = test: MIC80 determination, strain Y2767; type: cell-based, S. cerevisiae; details: Saccharomyces cerevisiae
Procedure: as §1

Y2768 OE CauCYP51 Y132F = test: MIC80 determination, strain Y2768; type: cell-based, S. cerevisiae; details: Saccharomyces cerevisiae
Procedure: as §1

Y2769 OE CauCYP51 K143R = test: MIC80 determination, strain Y2769; type: cell-based, S. cerevisiae; details: Saccharomyces cerevisiae
Procedure: as §1

Y2765 OE CauMDR1 = test: MIC80 determination, strain Y2765; type: cell-based, S. cerevisiae; details: Saccharomyces cerevisiae
Procedure: as §1

Y2766 OE CauCDR1 = test: MIC80 determination, strain Y2766; type: cell-based, S. cerevisiae; details: Saccharomyces cerevisiae
Procedure: as §1

2711 CnCYP51 OE CnCPR = test: MIC80 determination, strain 2711; type: cell-based, S. cerevisiae; details: Saccharomyces cerevisiae
Procedure: as §1

Y2649 OE CYP51 F1 RaCPR = test: MIC80 determination, strain Y2649; type: cell-based, S. cerevisiae; details: Saccharomyces cerevisiae
Procedure: as §1

Y2651 OE CYP51 F5 RaCPR = test: MIC80 determination, strain Y2651; type: cell-based, S. cerevisiae; details: Saccharomyces cerevisiae
Procedure: as §1

[1] = test system: Y2746 OE AfCYP51A AfCPR AfERG6; test: MIC80 determination, strain Y2746; type: cell-based, S. cerevisiae; details: Saccharomyces cerevisiae
Procedure: as §1

[2] = test system: Y2747 OE AfCYP51B AfCPR AfERG6; test: MIC80 determination, strain Y2747; type: cell-based, S. cerevisiae; details: Saccharomyces cerevisiae
Procedure: as §1

MCF-10A cells = test: Viability (CellTiter Blue) assay; type: cell-based, human; details: 48 h, 10 μM to 1 pM
Procedure: Human epithelial breast cells, MCF-10A, were routinely cultured in DMEM/F-12 (Fisher Scientific, Loughborough, UK) containing 5% heat-inactivated horse serum (ThermoFisher Scientific, UK), 20 ng/mL hEGF (Merck Life Science, Dorset, UK), 500 ng/mL hydrocortisone (Merck Life Science, Dorset, UK) and 10 μg/mL insulin (Merck Life Science, Dorset, UK) under tissue culture conditions (37 °C, 5% CO2 in a humidified incubator). Cells were passaged upon reaching confluency using 0.25% Trypsin/EDTA (Fisher Scientific, Loughborough, UK) for a maximum of 15 passages from defrosting. […].
Cells were seeded in 100 μL of complete medium per well in a black, flat-bottomed, 96-well tissue-culture-treated plate (Fisher Scientific, Loughborough, UK) at a density of 4000 cells/well and incubated under tissue culture conditions for 24 h. Cells were then treated by mixing in an additional 100 μL of drug/diluent control in complete medium to give final concentrations of 10 μM–1 pM. DMSO was used as a vehicle control, and as a positive toxic control, staurosporine was added at a final concentration of 10 μM. Cells were then incubated for 48 h under tissue culture conditions before the treatments were replaced with fresh media before performing the CellTiter Blue assay (Promega, Southampton, UK) was performed following the manufacturer's instructions. […]

CaCYP51 Y132F = CaCYP51 Y132F (Candida albicans, UniProt P10613, Y132F); details: footnote b; ref number not given; cited from earlier work
CaCYP51 Y132F, sequence (P10613 whole entry Y132F): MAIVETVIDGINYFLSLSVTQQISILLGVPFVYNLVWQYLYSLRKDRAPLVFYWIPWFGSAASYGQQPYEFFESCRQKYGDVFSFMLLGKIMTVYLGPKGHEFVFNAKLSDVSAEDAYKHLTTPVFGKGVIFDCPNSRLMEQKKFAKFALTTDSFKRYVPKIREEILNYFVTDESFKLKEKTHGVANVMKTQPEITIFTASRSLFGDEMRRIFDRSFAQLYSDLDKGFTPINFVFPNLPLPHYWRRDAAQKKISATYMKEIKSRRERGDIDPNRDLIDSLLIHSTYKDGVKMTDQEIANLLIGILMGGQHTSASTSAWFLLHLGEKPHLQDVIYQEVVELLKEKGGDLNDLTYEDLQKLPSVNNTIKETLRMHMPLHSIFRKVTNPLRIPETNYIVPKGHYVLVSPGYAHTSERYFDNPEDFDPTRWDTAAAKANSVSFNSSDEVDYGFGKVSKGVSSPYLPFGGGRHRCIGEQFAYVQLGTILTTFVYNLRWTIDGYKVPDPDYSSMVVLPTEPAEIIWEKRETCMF

CaCYP51 Y132H + K143R = CaCYP51 Y132H + K143R (Candida albicans, UniProt P10613, K143R/Y132H); details: footnote b; ref number not given; cited from earlier work
CaCYP51 Y132H + K143R, sequence (P10613 whole entry Y132H/K143R): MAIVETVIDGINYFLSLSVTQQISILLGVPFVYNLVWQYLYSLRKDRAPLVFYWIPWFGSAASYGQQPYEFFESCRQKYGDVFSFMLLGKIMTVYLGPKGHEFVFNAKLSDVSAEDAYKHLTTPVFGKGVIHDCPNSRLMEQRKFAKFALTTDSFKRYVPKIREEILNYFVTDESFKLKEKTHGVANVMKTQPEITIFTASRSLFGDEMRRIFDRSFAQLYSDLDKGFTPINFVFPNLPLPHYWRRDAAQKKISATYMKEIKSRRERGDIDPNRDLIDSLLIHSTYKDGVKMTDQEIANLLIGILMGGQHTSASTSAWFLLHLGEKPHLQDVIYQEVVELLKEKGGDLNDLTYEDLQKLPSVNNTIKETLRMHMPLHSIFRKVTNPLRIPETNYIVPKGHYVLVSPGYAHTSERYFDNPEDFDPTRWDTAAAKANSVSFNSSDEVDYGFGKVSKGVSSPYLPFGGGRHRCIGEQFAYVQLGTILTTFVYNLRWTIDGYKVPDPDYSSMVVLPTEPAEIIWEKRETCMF

C. albicans = test system: C. albicans; design: method as in number not given; details: ref number not given; cited from earlier work

**Q.** With `CC[C@@H]([C@H](C)O)n1ncn(-c2ccc(N3CCN(c4ccc(OC[C@@H]5CO[C@@](Cn6cncn6)(c6ccc(F)cc6F)C5)cc4)CC3)cc2)c1=O` [PCZ, posaconazole, reference compound] as the compound, how does the MIC80 (Y2411 Endog. ScCYP51) read?
**A.** 0.097 ± 0.04 µM

**Q.** What about the MIC80 (Y2300 OE ScCYP51) of the same compound?
**A.** 2 ± 0.05 µM

**Q.** What about the MIC80 (Y2301 OE ScCYP51 Y140F) of the same compound?
**A.** 0.191 ± 0.041 µM

**Q.** And the MIC80 (Y2513 OE ScCYP51 Y140H)?
**A.** 0.147 ± 0.057 µM

**Q.** And the MIC80 (Y2459 OE CaCYP51 CaCpr)?
**A.** 0.22 ± 0.07 µM

**Q.** What about the MIC80 (Y525 OE CaMDR1a) of the same compound?
**A.** 0.218 µM

**Q.** What about the MIC80 (Y570 OE CaCDR1B) of the same compound?
**A.** > 25 µM

**Q.** And the MIC80 (Y71 SC5314)?
**A.** 0.073 µM

**Q.** What about the MIC80 (Y1) of the same compound?
**A.** 0.07 µM

**Q.** And the MIC80 (Y610 FHB1)?
**A.** 0.151 ± 0.016 µM

**Q.** What about the MIC80 (Y611 FHB3) of the same compound?
**A.** 0.53 µM

**Q.** What about the MIC80 (Y2721 OE CpCYP51) of the same compound?
**A.** 0.122 ± 0.037 µM

**Q.** And the MIC80 (Y2716 OE CpCYP51 Y132F)?
**A.** 0.135 ± 0.058 µM

**Q.** And the MIC80 (Y2374 OE CgCYP51)?
**A.** 0.332 µM

**Q.** And the MIC80 (Y433 OE CgCDR1)?
**A.** 23.8 µM

**Q.** What about the MIC80 (Y2767 OE CauCYP51) of the same compound?
**A.** 0.196 ± 0.022 µM

**Q.** And the MIC80 (Y2768 OE CauCYP51 Y132F)?
**A.** 0.168 ± 0.006 µM

**Q.** And the MIC80 (Y2769 OE CauCYP51 K143R)?
**A.** 0.117 ± 0.005 µM

**Q.** And the MIC80 (Y2765 OE CauMDR1)?
**A.** 0.096 ± 0.003 µM

**Q.** What about the MIC80 (Y2766 OE CauCDR1) of the same compound?
**A.** 0.971 ± 0.049 µM

**Q.** And the MIC80 (2711 CnCYP51 OE CnCPR)?
**A.** 0.035 ± 0.015 µM

**Q.** What about the MIC80 (Y2649 OE CYP51 F1 RaCPR) of the same compound?
**A.** 0.1 µM

**Q.** And the MIC80 (Y2651 OE CYP51 F5 RaCPR)?
**A.** 0.054 ± 0.011 µM

**Q.** What about the MIC80 [1] of the same compound?
**A.** 0.033 ± 0.014 µM

**Q.** And the MIC80 [2]?
**A.** 0.07 ± 0.024 µM

**Q.** What about the “cell viability (tolerance in words)” value (MCF-10A cells) of the same compound?
**A.** no difference observed

**Q.** And the IC50 (CaCYP51 Y132F)?
**A.** 343 ± 20 nM

**Q.** And the IC50 (CaCYP51 Y132H + K143R)?
**A.** 196 ± 7 nM

**Q.** What about the MIC (C. albicans) of the same compound?
**A.** ≤ 0.03 µg/mL
